This is an account of results in patent US20210238124A1, “ACETYLATED PRODRUGS FOR DELIVERY ACROSS THE BLOOD-BRAIN BARRIER” (THE GENERAL HOSPITAL CORPORATION, priority 2018, published 2021).

Data set [1] can be described thus: Biodistribution of 4-[^18F]-fluoroinositol in normal rats. Type of data set: in vivo. Particulars: FIG. 1.
The nature of data set [2]: Biodistribution / brain uptake of ^18F-scyllo-inositols 1 and 2. Type of data set: in vivo, rats. As to the method: Brain uptake (% DPG) at 5, 30, and 60 min for the acetylated derivative 1 was 0.8%, 0.9%, and 0.26% (See FIG. 4).
Inositol is transported across the blood-brain barrier by a low capacity, saturable system.

Data set [3] relates to large intestinal cancer. Particulars: rats fed prior to carcinogen treatment; cited from earlier work.
For data set [4] the following is noted: rat, in vivo. How it is done: Here, imaging is performed in normal rats and rats pretreated with mannitol.
PET imaging was performed in a rats using a Siemens Focus 220 scanner with Neurological CT scanner. [^18F]-fluoromannitol (1.2 mCi) was injected via tail-vein and imaged in list mode for one hour.
In a separate experiment, a 25% solution of D-mannitol was i.v. injected 30 min prior to tracer injection.

The target in data set [5] is Aβ42 fibers (Homo sapiens, UniProt P05067). Particulars: cited from earlier work.
Sequence of Aβ42 fibers (P05067 672-713 limits assumed): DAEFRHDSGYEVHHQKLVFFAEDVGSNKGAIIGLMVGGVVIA

As for `OC1C(O)C(O)C(F)C(O)C1O` (centres unmarked) [4-[^18F]-fluoroinositol, 4-deoxy-4-fluoro-myo-inositol], in data set [1], the defluorination entry was “minimal”; the “tissue accumulation (biodistribution)” value is “high and fast accumulation in kidney and bladder without any other specific tissue accumulation”.
`OC1C(O)C(O)C([18F])C(O)C1O` (centres unmarked) [Compound 2, 1-deoxy-1-[^18F]-fluoro-scyllo-inositol]: the “Brain uptake (% DPG)” value stood at 0.18 % DPG in data set [2] (5 min), 0.30 % DPG in data set [2] (30 min) and 0.36 % DPG in data set [2] (60 min). Further, the “site of majority of the activity” value in data set [2] (FIG. 5) was “majority of the activity accumulating in kidneys”.
As for `O=P([O-])(O)OC1C(OP(=O)(O)O)C(OP(=O)(O)O)C(OP(=O)(O)O)C(OP(=O)(O)O)C1OP(=O)(O)O.[Na+]` (centres unmarked) [sodium inositol hexaphosphate], the “decrease in large intestinal cancer compared to the control carcinogen group” value in data set [3] was 35%.
With `OC[C@@H](O)[C@@H](O)[C@H](O)[C@H](O)C[18F]` [[^18F]-Fluoromannitol, 1-deoxy-1-[^18F]-fluoro-D-mannitol], in data set [4], the “Brain accumulation (% injected dose)” value stood at 0.1 % ID; the “Brain activity (% injected dose)” value amounted to 0.08 % ID; the “brain uptake in the images” value is on record as “high brain uptake”; the early brain kinetics result was “very fast flow related brain accumulation and washout”.
Take `CC(=O)OC1C([18F])C(OC(C)=O)C(OC(C)=O)C(OC(C)=O)C1OC(C)=O` (centres unmarked) [Compound 1, 1-deoxy-1-[^18F]-fluoro-2,3,4,5,6-penta-O-acetyl-scyllo-inositol]: the brain clearance result in data set [2] (rat, in vivo) is “significant brain clearance”.
Consider `OC1C(O)C(O)C(F)C(O)C1O` (centres unmarked) [1-deoxy-1-fluoro-scyllo-inositol], for which the “formation of Aβ42 fibers” value in data set [5] is recorded as “significantly inhibit”.
With `O[C@H]1[C@H](O)[C@@H](O)[C@H](O)[C@@H](O)[C@@H]1O` [scyllo-inositol], in data set [5], the “formation of Aβ42 fibers” value is recorded as “inhibiting Aβ42 fiber formation”.
